What all share (format): biochemical
One assay has as its target PDE1A (Homo sapiens (Human), UniProt P54750). Kind of assay: biochemical. From the text: (§1) Table 1 lists the IC50 value for inhibition of PDE1 by the compounds of the invention. […] PDE1 assays are described in the Experimental Section.
The next assay addresses PDE1C (Homo sapiens (Human), UniProt Q14123). Kind of assay: biochemical. The note with it: 15 nM tritium labelled cAMP, 1 hr at room temperature, SPA beads.
Excerpt: as §1

The target of the next assay is PDE1B (Homo sapiens (Human), UniProt Q01064). Nature of the assay: PDE1 inhibition assay (PDE1B). The settings on record: 15 nM tritium labelled cAMP, 1 hr at room temperature, SPA beads.
Chain of PDE1B (Q01064 whole entry): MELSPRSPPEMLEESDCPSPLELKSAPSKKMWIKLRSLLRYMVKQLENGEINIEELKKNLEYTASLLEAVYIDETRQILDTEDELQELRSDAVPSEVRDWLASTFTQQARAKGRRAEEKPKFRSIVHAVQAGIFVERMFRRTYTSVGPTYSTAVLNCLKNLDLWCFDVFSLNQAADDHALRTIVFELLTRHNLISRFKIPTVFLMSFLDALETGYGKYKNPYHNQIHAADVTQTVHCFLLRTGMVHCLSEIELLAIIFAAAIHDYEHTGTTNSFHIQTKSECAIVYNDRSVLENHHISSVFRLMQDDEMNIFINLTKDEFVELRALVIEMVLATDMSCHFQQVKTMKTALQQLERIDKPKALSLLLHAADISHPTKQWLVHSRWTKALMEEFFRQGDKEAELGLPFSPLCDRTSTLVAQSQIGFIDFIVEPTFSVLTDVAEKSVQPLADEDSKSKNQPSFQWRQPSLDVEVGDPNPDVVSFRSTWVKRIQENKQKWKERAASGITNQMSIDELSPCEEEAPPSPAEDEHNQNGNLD
Excerpt: as §1

Where [1] appears, read: 15 nM tritium labelled cAMP, 1 hr at room temperature, SPA beads.

Read-outs that look alike come from different tables or passages of the source.

Chain of PDE1C (Q14123 whole entry): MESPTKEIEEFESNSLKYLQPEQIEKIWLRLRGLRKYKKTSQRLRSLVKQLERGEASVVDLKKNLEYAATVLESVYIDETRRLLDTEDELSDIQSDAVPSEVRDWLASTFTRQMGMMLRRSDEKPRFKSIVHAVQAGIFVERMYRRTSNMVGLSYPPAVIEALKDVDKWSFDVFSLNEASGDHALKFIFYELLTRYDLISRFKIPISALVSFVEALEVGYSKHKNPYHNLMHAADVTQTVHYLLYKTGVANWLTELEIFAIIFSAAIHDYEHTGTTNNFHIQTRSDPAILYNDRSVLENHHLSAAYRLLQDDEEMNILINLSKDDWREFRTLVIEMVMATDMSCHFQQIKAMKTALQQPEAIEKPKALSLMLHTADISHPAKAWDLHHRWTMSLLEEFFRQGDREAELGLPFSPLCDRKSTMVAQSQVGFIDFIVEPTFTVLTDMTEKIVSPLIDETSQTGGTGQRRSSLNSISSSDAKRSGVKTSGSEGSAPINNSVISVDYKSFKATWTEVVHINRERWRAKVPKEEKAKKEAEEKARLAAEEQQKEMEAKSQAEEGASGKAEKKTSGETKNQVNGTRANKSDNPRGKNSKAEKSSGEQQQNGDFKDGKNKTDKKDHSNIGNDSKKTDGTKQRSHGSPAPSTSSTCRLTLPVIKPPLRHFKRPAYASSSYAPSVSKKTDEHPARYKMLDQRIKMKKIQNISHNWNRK
Chain of PDE1A (P54750 whole entry): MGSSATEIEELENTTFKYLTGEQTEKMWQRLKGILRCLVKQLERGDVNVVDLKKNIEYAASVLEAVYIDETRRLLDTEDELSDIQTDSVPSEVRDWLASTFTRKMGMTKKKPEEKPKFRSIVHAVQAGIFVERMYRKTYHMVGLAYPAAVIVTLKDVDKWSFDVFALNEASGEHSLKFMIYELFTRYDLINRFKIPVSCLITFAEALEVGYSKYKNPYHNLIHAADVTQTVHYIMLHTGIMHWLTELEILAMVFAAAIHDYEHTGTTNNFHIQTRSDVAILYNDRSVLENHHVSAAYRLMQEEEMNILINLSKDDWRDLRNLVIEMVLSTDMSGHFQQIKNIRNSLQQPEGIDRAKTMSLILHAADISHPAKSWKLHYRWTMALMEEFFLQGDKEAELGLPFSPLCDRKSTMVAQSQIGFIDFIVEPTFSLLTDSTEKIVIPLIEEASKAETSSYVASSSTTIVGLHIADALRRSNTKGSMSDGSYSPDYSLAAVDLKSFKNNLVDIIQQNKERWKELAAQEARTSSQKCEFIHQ

`CCOc1ncccc1-c1cc(NCc2ccc(F)nc2)c2c(n1)c(C)nn2C(C)C` [Example 116, 5-(2-ethoxy-3-pyridyl)-N-[(6-fluoro-3-pyridyl)methyl]-1-isopropyl-3-methyl-pyrazolo[4,3-b]pyridin-7-amine]: the IC50 at PDE1A (setting [1]) came out at 21 nM; at PDE1C, 46 nM; on PDE1B (read-out: PDE1B, IC50) it was 2.4 nM.

`CCOc1ncccc1-c1cc(NCc2ccc(C(F)F)nc2)c2c(n1)c(C)nn2C(C)C` [Example 117, N-[[6-(difluoromethyl)-3-pyridyl]methyl]-5-(2-ethoxy-3-pyridyl)-1-isopropyl-3-methyl-pyrazolo[4,3-b]pyridin-7-amine]: the 50% inhibitory concentration (IC50) was determined as 18 nM against PDE1A (setting [1]); 26 nM against PDE1C; 2.3 nM on PDE1B (read-out: PDE1B, IC50).

Regarding `CCOc1ncccc1-c1cc(NCc2ncccc2OC)c2c(n1)c(C)nn2C(C)C` [Example 118, 5-(2-ethoxy-3-pyridyl)-1-isopropyl-N-[(3-methoxy-2-pyridyl)methyl]-3-methyl-pyrazolo[4,3-b]pyridin-7-amine], the IC50 was 13 nM at PDE1A (setting [1]); 88 nM at PDE1C; 0.42 nM on PDE1B (read-out: PDE1B, IC50).

Regarding `CCCOc1ncccc1-c1cc(NCc2cn(C)cn2)c2c(n1)c(C)nn2C(C)C` [Example 142, 1-isopropyl-3-methyl-N-[(1-methylimidazol-4-yl)methyl]-5-(2-propoxy-3-pyridyl)pyrazolo[4,3-b]pyridin-7-amine], the IC50 against PDE1A (setting [1]) is 0.26 nM; against PDE1C, 0.8 nM; at PDE1B (read-out: PDE1B, IC50), 0.1 nM.

Take `CCCOc1ncccc1-c1cc(NCc2cc[nH]n2)c2c(n1)c(C)nn2C(C)C` [Example 143, 1-isopropyl-3-methyl-5-(2-propoxy-3-pyridyl)-N-(1H-pyrazol-3-ylmethyl)pyrazolo[4,3-b]pyridin-7-amine]: the IC50 against PDE1A (setting [1]) came out at 3.8 nM; on PDE1C it was 9.2 nM; on PDE1B (read-out: PDE1B, IC50) it was 0.26 nM.

As to `CCCOc1ncccc1-c1cc(NCc2ncn(C)n2)c2c(n1)c(C)nn2C(C)C` [Example 145, 1-isopropyl-3-methyl-N-[(1-methyl-1,2,4-triazol-3-yl)methyl]-5-(2-propoxy-3-pyridyl)pyrazolo[4,3-b]pyridin-7-amine], the IC50 was determined as 0.41 nM at PDE1A (setting [1]); 1.2 nM against PDE1C; 0.095 nM at PDE1B (read-out: PDE1B, IC50).

As for `CCCOc1ncccc1-c1cc(NCc2nc[nH]n2)c2c(n1)c(C)nn2C(C)C` [Example 146, 1-isopropyl-3-methyl-5-(2-propoxy-3-pyridyl)-N-(1H-1,2,4-triazol-3-ylmethyl)pyrazolo[4,3-b]pyridin-7-amine], the IC50 at PDE1A (setting [1]) was found to be 3.9 nM; against PDE1C it was 14 nM; on PDE1B (read-out: PDE1B, IC50), 0.51 nM.

On to `Cc1nn(C(C)C)c2c(NCc3cnn(C)c3)cc(-c3nccs3)nc12` [Example 147, 1-isopropyl-3-methyl-N-[(1-methylpyrazol-4-yl)methyl]-5-thiazol-2-yl-pyrazolo[4,3-b]pyridin-7-amine], for which the IC50 against PDE1A (setting [1]) is 12 nM; on PDE1C it was 28 nM; at PDE1B (read-out: PDE1B, IC50) it was 2.1 nM.

In the case of `Cc1cnc(-c2cc(NCc3cnn(C)c3)c3c(n2)c(C)nn3C(C)C)s1` [Example 148, 1-isopropyl-3-methyl-N-[(1-methylpyrazol-4-yl)methyl]-5-(5-methylthiazol-2-yl)pyrazolo[4,3-b]pyridin-7-amine], the IC50 against PDE1A (setting [1]) worked out at 110 nM; against PDE1C it was 86 nM; on PDE1B (read-out: PDE1B, IC50), 58 nM.

In the case of `Cc1csc(-c2cc(NCc3cnn(C)c3)c3c(n2)c(C)nn3C(C)C)n1` [Example 149, 1-isopropyl-3-methyl-N-[(1-methylpyrazol-4-yl)methyl]-5-(4-methylthiazol-2-yl)pyrazolo[4,3-b]pyridin-7-amine], the IC50 turned out to be 29 nM at PDE1A (setting [1]); 69 nM at PDE1C; 2.4 nM on PDE1B (read-out: PDE1B, IC50).

`Cc1nn(C(C)C)c2c(NCc3cnn(C)c3)cc(N3CC(C)OC3=O)nc12` (stereo not drawn) [Example 150, 3-[1-isopropyl-3-methyl-7-[(1-methylpyrazol-4-yl)methylamino]pyrazolo[4,3-b]pyridin-5-yl]-5-methyl-oxazolidin-2-one]: the IC50 on PDE1A (setting [1]) came to 44 nM; against PDE1C, 13 nM; on PDE1B (read-out: PDE1B, IC50), 33 nM.

Regarding `Cc1nn(C(C)C)c2c(NCc3cnn(C)c3)cc(N3CCOC3=O)nc12` [Example 151, 3-[1-isopropyl-3-methyl-7-[(1-methylpyrazol-4-yl)methylamino]pyrazolo[4,3-b]pyridin-5-yl]oxazolidin-2-one], the IC50 was found to be 10 nM at PDE1A (setting [1]); 12 nM on PDE1C; 4.7 nM at PDE1B (read-out: PDE1B, IC50).

For the compound `Cc1nn(C(C)C)c2c(NCc3cnn(C)c3)cc(N3CCC3=O)nc12` [Example 152, 1-[1-isopropyl-3-methyl-7-[(1-methylpyrazol-4-yl)methylamino]pyrazolo[4,3-b]pyridin-5-yl]azetidin-2-one], the IC50 came out at 48 nM at PDE1A (setting [1]); 61 nM against PDE1C; 32 nM at PDE1B (read-out: PDE1B, IC50).

As to `Cc1nn(C(C)C)c2c(NCc3cnn(C)c3)cc(N3CCN(C(C)(C)C)C3=O)nc12` [Example 153, 1-tert-butyl-3-[1-isopropyl-3-methyl-7-[(1-methylpyrazol-4-yl)methylamino]pyrazolo[4,3-b]pyridin-5-yl]imidazolidin-2-one], the IC50 turned out to be 130 nM against PDE1A (setting [1]); 270 nM on PDE1C; 76 nM at PDE1B (read-out: PDE1B, IC50).

For the compound `Cc1nn(C(C)C)c2c(NCc3cnn(C)c3)cc(N3CCCC3=O)nc12` [Example 154, 1-[1-isopropyl-3-methyl-7-[(1-methylpyrazol-4-yl)methylamino]pyrazolo[4,3-b]pyridin-5-yl]pyrrolidin-2-one], the half-inhibitory concentration (IC50) is 26 nM against PDE1A (setting [1]); 49 nM on PDE1C; 3.6 nM at PDE1B (read-out: PDE1B, IC50).

With `Cc1nn(C(C)C)c2c(NCc3cnn(C)c3)cc(N3C(=O)OCC3C)nc12` (stereo not drawn) [Example 155, 3-[1-isopropyl-3-methyl-7-[(1-methylpyrazol-4-yl)methylamino]pyrazolo[4,3-b]pyridin-5-yl]-4-methyl-oxazolidin-2-one], the IC50 against PDE1A (setting [1]) was found to be 8.2 nM; against PDE1C, 3.9 nM; at PDE1B (read-out: PDE1B, IC50), 4.9 nM.

For `CCOc1ncccc1-c1cc(CNc2cncc(OC)c2)c2c(n1)c(C)nn2C(C)C` [Example 157, N-[[5-(2-ethoxy-3-pyridyl)-1-isopropyl-3-methyl-pyrazolo[4,3-b]pyridin-7-yl]methyl]-5-methoxy-pyridin-3-amine], the half-inhibitory concentration (IC50) was found to be 34 nM against PDE1A (setting [1]); 77 nM against PDE1C; 14 nM at PDE1B (read-out: PDE1B, IC50).

On to `CCOc1ncccc1-c1cc(CNc2ncn(C)n2)c2c(n1)c(C)nn2C(C)C` [Example 158, N-[[5-(2-ethoxy-3-pyridyl)-1-isopropyl-3-methyl-pyrazolo[4,3-b]pyridin-7-yl]methyl]-1-methyl-1,2,4-triazol-3-amine], for which the IC50 on PDE1A (setting [1]) was determined as 23 nM; at PDE1C, 50 nM; at PDE1B (read-out: PDE1B, IC50) it was 4.9 nM.

Turning to `CCOc1ncccc1-c1cc(CCc2cncc(OC)c2)c2c(n1)c(C)nn2C(C)C` [Example 159, 5-(2-ethoxy-3-pyridyl)-1-isopropyl-7-[2-(5-methoxy-3-pyridyl)ethyl]-3-methyl-pyrazolo[4,3-b]pyridine], the IC50 against PDE1A (setting [1]) was 270 nM; against PDE1C, 1600 nM; at PDE1B (read-out: PDE1B, IC50) it was 70 nM.

Take `CCOc1ncccc1-c1cc(CCc2ncn(C)n2)c2c(n1)c(C)nn2C(C)C` [Example 160, 5-(2-ethoxy-3-pyridyl)-1-isopropyl-3-methyl-7-[2-(1-methyl-1,2,4-triazol-3-yl)ethyl]pyrazolo[4,3-b]pyridine]: the IC50 came to 23 nM against PDE1A (setting [1]); 56 nM at PDE1C; 3.9 nM on PDE1B (read-out: PDE1B, IC50).

As to `CCOc1ncccc1-c1cc(NCc2ncn(C)n2)c2c(n1)c(C)nn2C1COC1` [Example 163, 5-(2-ethoxy-3-pyridyl)-3-methyl-N-[(1-methyl-1,2,4-triazol-3-yl)methyl]-1-(oxetan-3-yl)pyrazolo[4,3-b]pyridin-7-amine], the IC50 at PDE1A (setting [1]) amounted to 120 nM; on PDE1C, 120 nM; on PDE1B (read-out: PDE1B, IC50), 14 nM.

Regarding `CCOc1ncccc1-c1cc(SCc2cnn(C)c2)c2c(n1)c(C)nn2C(C)C` [Example 164, 5-(2-ethoxy-3-pyridyl)-1-isopropyl-3-methyl-7-[(1-methylpyrazol-4-yl)methylsulfanyl]pyrazolo[4,3-b]pyridine], the IC50 is 6.8 nM on PDE1A; 25 nM against PDE1C; 1.6 nM against PDE1B (PDE1B, IC50 (nM)).

`CCOc1ncccc1-c1cc(NCc2cc(CF)no2)c2c(n1)c(C)nn2C(C)C` [Example 167, 5-(2-ethoxy-3-pyridyl)-N-[[3-(fluoromethyl)isoxazol-5-yl]methyl]-1-isopropyl-3-methyl-pyrazolo[4,3-b]pyridin-7-amine]: the concentration for half-maximal inhibition (IC50) against PDE1A (setting [1]) stood at 11 nM; on PDE1C, 33 nM; on PDE1B (read-out: PDE1B, IC50), 1 nM.

Consider `Cc1nn(C(C)C)c2c(NCc3cnn(C)c3)cc(-c3ncco3)nc12` [Example 168, 1-isopropyl-3-methyl-N-[(1-methylpyrazol-4-yl)methyl]-5-oxazol-2-yl-pyrazolo[4,3-b]pyridin-7-amine], for which the IC50 on PDE1A (setting [1]) is 14 nM; at PDE1C it was 36 nM; at PDE1B (read-out: PDE1B, IC50), 2.6 nM.

With `Cc1nn(C(C)C)c2c(NCc3cnn(C)c3)cc(-c3cnnn3C)nc12` [Example 169, 1-isopropyl-3-methyl-N-[(1-methylpyrazol-4-yl)methyl]-5-(3-methyltriazol-4-yl)pyrazolo[4,3-b]pyridin-7-amine], the IC50 at PDE1A (setting [1]) came to 610 nM; against PDE1C, 170 nM; on PDE1B (read-out: PDE1B, IC50), 85 nM.

With `COc1ncccc1-c1cc(NCc2cccnc2C(F)(F)F)c2c(n1)c(C)nn2C(C)C` [Example 170, 1-isopropyl-5-(2-methoxy-3-pyridyl)-3-methyl-N-[[2-(trifluoromethyl)-3-pyridyl]methyl]pyrazolo[4,3-b]pyridin-7-amine], the IC50 at PDE1A (setting [1]) was determined as 42 nM; at PDE1C it was 46 nM; on PDE1B (read-out: PDE1B, IC50), 5.3 nM.

Source of the values: US10034861B2 (priority 2016, dated 2018).
